Assay [1] concerns NIH 3T3 fibroblasts. Briefly: Cell growth potentiation test (potentiation of mitogenic activity of fetal calf serum, EZ4U cellular proliferation assay). It counts as cell-based. The settings on record: for Cell growth relative to FCS alone (%): 100% = same growth as base concentration of FCS alone; for Cell growth potentiation relative to minoxidil at 100 μM (%): 0% = base concentration of FCS alone (5% or 3%), 100% = minoxidil at 100 μM. An excerpt: To test for activity in mammalian hair growth stimulation, an in vitro test of cell growth potentiation has been applied to a number of the compounds of the invention and prior art compounds 11901 and 11903. The test involves an assay of the call growth due to potentiation of the mitogenic activity of fetal calf serum (FCS). See WO97/14036. Details of materials, methods and results are as follows.
Tissue culture plastics were obtained from Beckton Dickinson (Cowley, Oxford, UK). NIH 3T3 fibroblasts were obtained from the European collection of animal cell cultures (Salisbury, Wilts, UK). Dulbecco's modified Eagle's medium (DMEM) was obtained from Flow Laboratories (Rickmansworth, Herts, UK). L-Glutamine and fetal calf serum were from Gibco (Paisley, UK).
The EZ4U cell proliferation assay kits were obtained from Cozart Bioscience Ltd (Abingdon, Oxon, UK). All other chemicals were obtained from Sigma Chemical Company Ltd. (Poole, Dorset, UK), and of the highest grade available.
NIH 3T3 fibroblasts were maintained in Dulbecco's modified Eagle's medium supplemented with 10% FCS and 2 mM L-glutamine in 150 cm^2 tissue culture flasks at 37° C. in an atmosphere of 5% CO2/95% air. Antibiotics were omitted. Medium was changed every 3 days, and passages were carried out twice a week before cells reached confluence. Prior to experiments, cells were passaged and plated out to give 10^4 cell/ml in 96-well multi-well plates. Cells were incubated for 24 hours with Dulbecco's modified Eagle's medium supplemented with 10% FCS to aid attachment. This was then removed and the experimental medium added.
Compounds were prepared following a general preparation protocol. This protocol consisted of taking a mass of compound, dissolving in the recommended solvent (40 μl) such that in the final preparation the concentrations of compound and solvent would be 100 μM and 0.1 respectively. In theory this volume was 40 μl, however for accuracy a mass larger than the required mass was dispensed and the solvent volume varied accordingly; only 40 μl of this solution was required for the next stage. The 40 μl volume was then added to a volume of FCS (1.2 ml), such that in the final preparation the concentration of FCS would be 3%. This solution was then added to DMEM containing L-glutamine (2 mM) (18.76 ml). The resulting solution of 20 ml volume was filter stabilised. This solution is now 200 μM in compound, 6% FCS and 0.2% solvent, and so was diluted 1:1 with the DMEM containing L-glutamine. This 100 μM stock could then be diluted serially to provide lower concentrations of the compound of interest. Solutions containing different ratios of compound and FCS were obtained in a similar manner.
This was performed, following the manufacturer's instructions, using an EZ4U assay kit, which is based upon the conversion of tetrazolium salt to coloured formazam derivatives by mitochondria (Hansen et al, 1989). Plates were read on a plate reader (Anthos Labtec HT2), using a measurement filter (450 nm), with a reference filter (620 nm) with a low Shaking density for 5 seconds prior to measurement. Control experiments were made against counting cells in a haemocytometer (sanders et al, 1996). There is some variance of results between different batches of FCS employed.
A series of cell growth potentiation/inhibition tests has been carried out in accordance with the procedure described above on some of the compounds of the invention, on compounds 11901 and 11903 and on minoxidil (a compound well known for its hair growth stimulation effects). Because of some variability of results with different batches of FCS, each compound was tested in a solution of a base concentration of FCS and was compared with minoxidil in a solution of the same base concentration of FCS and with a solution having the same base concentration of FCS alone (no additive), using the same FCS batch in order to provide standardised comparisons for that compound. […]

For assay [2], the system named is K+-stimulated isolated rat aorta. Briefly: K+-stimulated isolated rat aorta test. The settings on record: relaxation of contraction triggered by 25 mM KCl in rat aorta rings; asterisk (*) = low activity, only approximate value. As for the experimental part:
K^+-stimulated Isolated Rat Aorta Test
Male rats weighing about 300 g are killed painlessly by a blow to the neck and quickly exsanguinated. The thoracic cavity is opened and the aorta is carefully resectioned. It is placed in a Petri dish filled with Krebs solution, and surrounding connective and fatty tissue is removed. Two rings are prepared. The rings are each suspended in an organ bath, They are attached at the bottom to a hook and at the top to an electrical force transducer which is able to measure precisely contractions of 0-10 grams in strength. The measured contractions are amplified by means of a bridge amplifier and recorded with a thermal plotter.
The organ baths are filled with Krebs solution at 37° C. through which an O2/CO2 mixture is bubbled thoroughly and which has the following composition (mmol/1): NaCl 118.4; KCl 4.7; CaCl2 2.5; KH2PO4 1.2; MgSO4 1.2; NaHCO3 25; glucose 11.
The rings are stretched with a basic tone of about 0.5 g, After an equilibration time of about 30 minutes, the rings are caused to undergo contraction by depolarization (addition of 25 mM KCl to the organ bath). The contractions of the rings of aorta, triggered by the depolarization, quickly reach a plateau, As soon as this plateau is reached (“100% value”), the test substance is added to the organ bath, initially at low concentrations, for example 10^−8M, and then in increasing doses at regular intervals, until the contractions reduce or the final concentration of 10^−4M is reached. Each test substance is tested 2-4 times in this way.
For purposes of evaluation, the height of the contractions registered on the plotter paper is measured for each experiment after the action of each test concentration added. The IC50 value can be calculated in this way in relation to the original height of contractions before the addition of substance (100%).

The values that follow come from patent US6342517B1, “Potassium channel activators and their use” (Cambridge Bioclinical Limited, priority 1998, dated 2002).

On to `Nc1cc(N2CCCCC2)nc(N)[n+]1[O-]` [minoxidil, reference compound], for which the “concentration of greatest potentiation of mitogenic activity of FCS” value in assay [1] (5% FCS, FIG. 2, 100% growth = value for 10% FCS) was found to be 100 µM.
Broadly, the IC50 is the concentration at which inhibition is half-maximal. The low end stands for higher potency, the high end for lower potency. With `CC1(C)C[C@@]2(SCC[S@+]2[O-])c2sccc2O1` (relative stereo) [Compound 50064, rel-(1S, 2S)-6′,7′-Dihydro-5′,5′-dimethylspiro[1,3-dithiolane-2,7′-5H-thieno[3,2-b]pyran]-1-oxide], the concentration for half-maximal inhibition (IC50) in assay [2] is approximately 10 µM.
Take `CC1(C)CC2(SCCCS2)c2sc(C#N)cc2O1` [Compound 50057, 6′,7′-Dihydro-5′,5′-dimethylspiro[1,3-dithiane-2,7′-5H-thieno[3,2-b]pyran]-2′-carbonitrile]: the “Cell growth relative to FCS alone (%)” value in assay [1] (Compound at 10 μM) worked out at 98%. Further, the “Cell growth potentiation relative to minoxidil at 100 μM (%)” value in assay [1] (Compound at 100 μM) is 33%. In assay [2], the IC50 was approximately 10 µM.
In assay [2], `CC1=C(C)C[C@]2(CC(C)(C)Oc3cc(S(=O)(=O)c4ccccc4)sc32)[S@+]([O-])C1` (relative stereo) [Compound 50126, rel-(1′R,2′R)-3′,6,6′,7-Tetrahydro-4′,5,5′,5-tetramethyl-2-(phenylsulphonyl)spiro[5H-thieno[3,2-b]pyran-7,2′-2H-thiopyran]1′-oxide] registered an IC50 of 6.3 µM.
Turning to “6′,7′-Dihydro-5′,5′-dimethylspiro[1,3-dithialane-2,7′-5H-thieno[3,2-b]pyran]-2′-carbonitrile [Compound 50066]”, the “Cell growth potentiation relative to minoxidil at 100 μM (%)” value in assay [1] (Compound at 10 μM) is 355%; in assay [1] (Compound at 100 μM), 144%. Further, the 50% inhibitory concentration (IC50) in assay [2] is approximately 10 µM.
Regarding `CC1=C(C)C(C2=CC(C)(C)Oc3cc(C#N)sc32)[S+]([O-])C1` (stereo not shown) [Compound 50106, 5,5-Dimethyl-(2,5-dihydro-3,4-dimethyl-1-oxy-thien-2-yl)-5H-thieno[3,2-b]pyran-2-carbonitrile], the “Cell growth relative to FCS alone (%)” value in assay [1] (Compound at 10 μM) is on record as 80%. In assay [1] (Compound at 100 μM), the “Cell growth potentiation relative to minoxidil at 100 μM (%)” value is on record as 60%.
As for `CC1=C(C)C[C@@]2(CC(C)(C)Oc3ccsc32)[S@+]([O-])C1` (relative stereo) [Compound 50055, rel-(1′R, 2′S)-3′,6,6′,7-Tetrahydro-4′,5,5′,5-tetramethylspiro[5N-thieno[3,2-b]pyran-7,2′-2H-thiopyran]-1′-oxide], the IC50 in assay [2] was approximately 10 µM.
In assay [2], `CC1(C)CC2(CC3(C)OC3(C)CS2(=O)=O)c2sccc2O1` (stereo not shown) [Compound 50111, 4′,5′-Epoxy-3′,6,6′,7-tetrahydro-4′,5,5,5′-tetramethyl-spiro[5H-thieno[3,2-b]pyran-7,2′-2H-thiopyran]-1′,1′-dioxide] showed an IC50 of 3 µM.
In the case of `CC1=C(C)C[C@]2(CC(C)(C)Oc3cc(C#N)sc32)[S@+]([O-])C1` (relative stereo) [Compound 50096, rel-(1′R, 2′R)-3′,6,6′,7-Tetrahydro-4′,5,5′,5-tetramethyl-1′-oxospiro[5H-thieno[3,2-b]pyran-7,2′-2H-thiopyran-2-carbonitrile], the IC50 in assay [2] is 2.3 µM.
The compound `CC1=C(C)CS(=O)(=O)C2(C1)CC(C)(C)Oc1ccsc12` (stereo not shown) [Compound 50110, 3′,6,6′,7-Tetrahydro-4′,5,5,5′-tetramethyl-spiro[5H-thieno[3,2-b]pyran-7,2′-2H-thiopyran]-1′,1′-dioxide] returned an IC50 in assay [2] of 10 µM.
Still for that read-out and setting: in the case of `CC1(C)C[C@]2(SCC[S@+]2[O-])c2sccc2O1` (relative stereo) [Compound 50065, rel-(1S, 2R)-6′,7′-Dihydro-5′,5′-dimethylspiro[1,3-dithiolane-2,7′-5H-thieno[3,2-b]pyran]-1-oxide] it was approximately 30 µM.
Turning to `CC1(C)C=C(N2CCCC2=O)c2sc(C#N)cc2O1` [Compound 50040, 5,5-Dimethyl-7-(2-oxo-1-pyrrolidinyl)-5H-thieno[3,2-b]pyran-2-carbonitrile], the “Cell growth potentiation relative to minoxidil at 100 μM (%)” value in assay [1] (Compound at 10 μM) is recorded as 24%; in assay [1] (Compound at 100 μM), 48%.
Regarding `CC1(C)C[C@]2(SCCC[S@+]2[O-])c2sccc2O1` (relative stereo) [Compound 50070, rel-(1S, 2R)-6′,7′-Dihydro-5′,5′-dimethylspiro[1,3-dithiane-2,7′-5H-thieno[3,2-b]pyran]-1-oxide], the results for the “Cell growth relative to FCS alone (%)” value in assay [1] (Compound at 10 μM) and in assay [1] (Compound at 100 μM) were 81% and 78%, respectively.
`CC1(C)Oc2cc(S(=O)(=O)c3ccccc3)sc2[C@@H](N2CCCC2=O)[C@@H]1O` [Compound 50108, (?)-(6S, 7S)-6,7-Dihydro-6-hydroxy-5,5-dimethyl-7-(2-oxo-1-pyrrolidinyl)-2-(phenylsulphonyl)-5H-thieno[3,2-b]pyran] returned a half-maximal inhibitory concentration (IC50) in assay [2] of 0.018 µM.
Turning to `CC1(C)Oc2cc(C(F)(F)C(F)(F)F)sc2[C@@H](N2CCCCC2=O)[C@@H]1O` (relative stereo) [Compound 50174, rel-(6S, 78S)-2-(Pentafluoroethyl)-6,7-dihydro-6-hydroxy-5,5-dimethyl-7-(2-oxo-1-piperidinyl)-5H-thieno[3,2-b]pyran], the “Cell growth potentiation relative to minoxidil at 100 μM (%)” value is reported as 244% in assay [1] (Compound at 10 μM) and 133% in assay [1] (Compound at 100 μM).
In assay [2], `CC1=C(C)C[C@@]2(CC(C)(C)Oc3cc(S(=O)(=O)c4ccccc4)sc32)[S@+]([O-])C1` (relative stereo) [Compound 50127, rel-(1′R,2′S)-3′,6,6′,7-Tetrahydro-4′,5,5′,5-tetramethyl-2-(phenylsulphonyl)spiro[5H-thieno[3,2-b]pyran-7,2′-2H-thiopyran]1′-oxide] displayed an IC50 of 7.4 µM.
As to `CC1(C)C[C@]2(SCC[S@+]2[O-])c2sc(C#N)cc2O1` (relative stereo) [Compound 50068, rel-(1S, 2R)-6′,7′-Dihydro-5′,5′-dimethylspiro[1,3-dithiolane-2,7′-5H-thieno[3,2-b]pyran]-2′-carbonitrile-1-oxide], in assay [2], the IC50 is approximately 30 µM.
`CC1=C(C)C[C@]2(CC(C)(C)Oc3ccsc32)[S@+]([O-])C1` (relative stereo) [Compound 50054, rel-(1′R, 2′R)-3′,6,6′,7-Tetrahydro-4′,5,5′,5-tetramethylspiro[5H-thieno[3,2-b]pyran-7,2′-2H-thiopyran]-1′-oxide]: in assay [2], the IC50 is approximately 3 µM.
Regarding “5,5-Dimethyl-7-(2-oxo-1-pyrrolidinyl)-2-(thiazolin-2-yl)-5-thieno[3,2-b]pyran [Compound 50133]”, the “Cell growth potentiation relative to minoxidil at 100 μM (%)” value in assay [1] (Compound at 10 μM) worked out at 54%. In assay [1] (Compound at 100 μM), the “Cell growth relative to FCS alone (%)” value was found to be 60%.
